From patent US20120171123A1, “USES AND COMPOSITIONS FOR TREATMENT OF RHEUMATOID ARTHRITIS” (priority 2006, published 2012)

System: patients with active rheumatoid arthritis
Experiment: Study A: HAQ physical function
Format: in vivo, human
Source text: Efficacy of a treatment for rheumatoid arthritis can be determined by using the health assessment questionnaire (HAQ). Health Assessment Questionaire (HAQ) is a standardized disability questionnaire that was initially developed for use in rheumatoid arthritis (RA). […] The HAQ is a validated questionnaire designed to assess patients' ability to perform activities of daily living, particularly in adult arthritics. The instrument consists of the HAQ Disability Index (20 items), Pain Scale (1 item), and Global Health Status (1 item) that measure disability/physical functioning and quality of life (see Fries (1982) et al. J Rheumatol 9:789).
Improvements in physical function were determined using the HAQ score.
To evaluate the impact of prior biological therapies, patients with moderate to severe RA enrolled at 450 sites in 11 European countries plus Australia (Study A). Patients with moderate to severe RA and an inadequate response to prior DMARD therapies were enrolled in a 12-week open-label study with an optional extension phase. […] Efficacy parameters included ACR20, ACR50, ACR70, EULAR Response, HAQ, tender and swollen joint count (TJC28/SJC28), and DAS28.
Patients with long-standing, moderate to severe RA were enrolled in Study A at 450 sites in 12 different countries. The study design for Study A is outlined in FIG. 21. […] Previous treatment with other biologics was allowed up to 8 weeks before enrollment. Patients met the following inclusion criteria: Age ≧18 years; RA (defined by American College of Rheumatology criteria) for ≧3 months; active, moderate to severe RA (Disease Activity Score (DAS28)≧3.2); unsatisfactory response or intolerance to at least one prior DMARD, including biologics. Efficacy assessments were performed at weeks 0 (baseline), 2, 6, and 12. The key outcomes measured were: change in DAS28; EULAR responses; ACR20, ACR50, ACR70 responses; changes in Tender Joint Count (TJC) and Swollen Joint Count (SJC); and change in Health Assessment Questionnaire (HAQ).
Moderately to severely active RA was defined by Disease Activity Score 28 (DAS28)≧3.2 at baseline. Unsatisfactory response or intolerance to at least one prior DMARD was required for enrollment in Study A. A 12-week study period was followed by an optional extension phase with efficacy and routine safety evaluations performed at Weeks 2, 6, 12, 20, and every 8 weeks thereafter. […] Key efficacy parameters include ACR20, 50, and 70 responses; EULAR responses; and changes in DAS28, Tender Joint Count (TJC), Swollen Joint Count (SJC), C-Reactive Protein (CRP), and Health Assessment Questionnaire Disability Index (HAQ). […] Adverse events (AE) were collected throughout the entire treatment period, also beyond Week 52.

[1] = 12 weeks, all pts in Study A (n=4241)
[2] = 12 weeks, prior biologic: Any (n=688)
[3] = 12 weeks, prior biologic: ETA (n=114)
[4] = 12 weeks, prior biologic: ETA + INF (n=78)
[5] = 12 weeks, prior biologic: INF (n=358)
[6] = 12 weeks, prior biologic: None (n=3553)

## adalimumab: human anti-TNF mAb (HUMIRA, Abbott Laboratories), described in U.S. Pat. No. 6,090,382 as D2E7
12 weeks, N=2008 analysis
  improvement in HAQ score: −0.49
  patients achieving HAQ<0.5: 25%
[1]
  Change in HAQ, mean change from baseline: −0.49
  HAQ < 0.5: 24%
[2]
  Change in HAQ, mean change from baseline: −0.43
  HAQ < 0.5: 13%
[3]
  Change in HAQ, mean change from baseline: −0.36
  HAQ < 0.5: 9%
[4]
  Change in HAQ, mean change from baseline: −0.35
  HAQ < 0.5: 13%
[5]
  Change in HAQ, mean change from baseline: −0.49
  HAQ < 0.5: 14%
[6]
  Change in HAQ, mean change from baseline: −0.5
  HAQ < 0.5: 26%
Week 12, concomitant LEF only (n=557)
  Change in HAQ, mean change from baseline: −0.47
Week 12, concomitant MTX + LEF (n=123)
  Change in HAQ, mean change from baseline: −0.53
Week 12, concomitant MTX + SSZ
  Change in HAQ, mean change from baseline: −0.53
Week 12, concomitant MTX only (n=1561)
  Change in HAQ, mean change from baseline: −0.52
Week 12, concomitant QC/HQC (n=85)
  Change in HAQ, mean change from baseline: −0.63
Week 12, concomitant SSZ only (n=89)
  Change in HAQ, mean change from baseline: −0.47
Wk 12, concomitant MTX Im 15 mg (N=76), no other DMARD
  Change in HAQ, mean change from baseline: −0.55
Wk 12, concomitant MTX Iv 15 mg (N=23), no other DMARD
  Change in HAQ, mean change from baseline: −0.54
Wk 12, concomitant MTX Sc 15 mg (N=37), no other DMARD
  Change in HAQ, mean change from baseline: −0.53
Wk 12, concomitant MTX oral 15 mg (N=405), no other DMARD
  Change in HAQ, mean change from baseline: −0.50
Wk 12, concomitant MTX oral ≦7.5 (N=127), no other DMARD
  Change in HAQ, mean change from baseline: −0.56
Wk 12, concomitant MTX oral ≧20 mg (N=216), no other DMARD
  Change in HAQ, mean change from baseline: −0.52
Week 2
  mean change in HAQ score from baseline: −0.32
Week 6
  mean change in HAQ score from baseline: −0.44
Week 12
  mean change in HAQ score from baseline: −0.51
  patients achieving HAQ<0.5: 5%
  patients with a change in HAQ≧−0.22 (MCID): 70%
Week 12 (n=6235)
  change in HAQ: −0.52
Week 12, listed as Adalimumab
  patients achieving HAQ<0.5: 25%
Week 28 (n=4119)
  change in HAQ: −0.56
Week 52 (n=1251)
  change in HAQ: −0.57
